{"source": "paper PMC7824363", "about": "“The Cytotoxicity of RNase-Derived Peptides” (Biomolecules, 2020)", "key": {"BT-20 cells [1]": {"system": "BT-20 cells", "assay": "MTT assay, BT-20 cell viability", "assay_type": "cell-based, human", "conditions": "48 h", "experimental": "(§1) The human alveolar adenocarcinoma cell line (A549), two breast cancer cell lines (MCF-7 and BT-20), and cervical cancer cell line (HeLa) were obtained from American Type Culture […] (Rockville, MD, USA). Cells were grown at 37 °C in humidified 5% CO2 atmosphere using RPMI 1640 medium for A549 cells and Dulbecco’s modified Eagle’s medium for MCF-7, BT-20, and HeLa cells supplemented with 10% fetal bovine serum (HyClone), 2 mM glutamine, and antibiotics (penicillin and streptomycin, 100 U/mL each).\n(§2) The viability of untreated control cells and cells treated with binase and binase-derived peptides at different concentrations (5, 50, and 125 μM) was determined according to the mitochondrial nicotinamide adenine dinucleotide phosphate NAD(P)H-dependent cellular oxidoreductases activity tested by the standard procedure based on the reduction of the tetrazolium dye MTT) to its insoluble product formazan, which has a purple color. Cells at the initial concentration of […] per well were grown in a 96-well plate (CELLTREAT Scientific Products, Shirley, MA, USA); then, the culture fluid was discarded and fresh medium with peptides was added. After 48 h, formazan absorption was measured at 570 nm (xMark, Bio-Rad, Hercules, CA, USA). The amount of formazan produced is proportional to the number of viable cells. The viability of untreated cells was taken as 100%."}, "BT-20 cells [2]": {"system": "BT-20 cells", "assay": "Immunofluorescence confocal microscopy, entry into BT-20 cells", "assay_type": "cell-based, human", "conditions": "50 µM, 30 min incubation, His-tagged peptides (anti-His Alexa Fluor 647) or tagless binase (anti-binase, FITC), confocal laser scanning microscopy", "experimental": "(§3) A549 cells (25,000 cells/well) and BT-20 cells (150,000 cells/well) were seeded on 4-well chamber slides and incubated for 24 h in 800 µL of 10% fetal bovine serum containing RPMI or DMEM, respectively. The medium was replaced with the fresh one, and the His-tagged B21–50 and B74–94 peptides or tagless binase were applied to each well at the final concentration of 50 µM. After 30 min of incubation, the medium was removed, and the cells were washed three times with ice-cold phosphate-buffered saline (PBS). Then, cells were fixed in a 4% paraformaldehyde solution for 15 min and permeabilized in 0.1% Triton-X100 solution in PBS for 10 min. Binase-treated cells were incubated overnight with anti-binase antibodies (1:500) at 4 °C [39]. Thereafter, the cells were washed three times in PBS containing 0.1% Tween for 10 min each and then were incubated with fluorescein isothiocyanate (FITC)-conjugated mouse anti-rabbit immunoglobulin G (IgG) (H+L) cross-adsorbed secondary antibody (Thermo Fisher Scientific, Inc., Waltham, MA, USA Cat.# 31584) at the concentration of 2 µg/mL in PBS containing 1% bovine serum albumin at room temperature for 45 min in the dark. Non-specific binding of the secondary antibodies was evaluated at the same experiment but without treatment with primary antibodies. […]"}, "A549 cells": {"system": "A549 cells", "assay": "Immunofluorescence confocal microscopy, entry into A549 cells", "assay_type": "cell-based, human", "conditions": "50 µM, 30 min incubation, His-tagged peptides (anti-His Alexa Fluor 647) or tagless binase (anti-binase, FITC), confocal laser scanning microscopy", "experimental": "as §3"}, "HeLa cells": {"system": "HeLa cells", "assay": "MTT assay, HeLa cell viability", "assay_type": "cell-based, human", "conditions": "48 h, versus untreated cells = 100%, triplicate", "experimental": "as §1, §2"}, "BT-20 cells [3]": {"system": "BT-20 cells", "assay": "MTT assay with cetuximab pre-treatment (EGFR inhibition)", "assay_type": "cell-based, human", "conditions": "10 μg/mL cetuximab for 48 h, then 50 μM peptide for 48 h", "experimental": "To examine the peptide effect on EGFR signaling, the EGFR-specific monoclonal antibody cetuximab (Merck, KGaA, Darmstadt, Germany) was added at the concentration of 10 μg/mL to cells grown for 24 h in 96-well plates. After 48 h of exposure to inhibitor, half the wells were treated with the B74–94 peptide at 50 μM concentration, and the cells were allowed to grow for another 48 h. Afterwards, cell proliferation was assessed by the MTT assay."}, "MCF-7 cells": {"system": "MCF-7 cells", "assay": "MTT assay, MCF-7 cell viability", "assay_type": "cell-based, human", "conditions": "125 µM, 48 h", "experimental": "as §1, §2"}, "[4]": {"target": "epidermal growth factor receptor (human (endogenous in BT-20)) (UniProt P00533)"}, "[5]": {"conditions": "concentration not specified (5-125 µM tested)"}}}
{"substance": "B1–20: chemically synthesized peptide corresponding to binase region 1–20 (AVINTFDGVADYLIRYKRLP; UniProt P00649 54-73, looked up, fragment)", "values": [{"measurement": "decrease of cell viability", "setting": "BT-20 cells [1]; [5]", "value": "15–25%"}]}
{"substance": "B21–50: chemically synthesized peptide corresponding to binase region 21–50 (DNYITKSQASALGWVASKGNLAEVAPGKSI; UniProt P00649 74-103, looked up, fragment)", "values": [{"measurement": "detection inside BT-20 cells", "setting": "BT-20 cells [2]", "value": "detected inside BT-20 cells"}, {"measurement": "decrease of cell viability", "setting": "BT-20 cells [1]; 5 µM, versus non-treated cells, triplicate", "value": 28, "unit": "%"}, {"measurement": "decrease of cell viability", "setting": "BT-20 cells [1]; 50 µM, versus non-treated cells, triplicate", "value": 23, "unit": "%"}, {"measurement": "decrease of cell viability", "setting": "BT-20 cells [1]; 125 µM, versus non-treated cells, triplicate", "value": 68, "unit": "%"}, {"measurement": "detection inside A549 cells", "setting": "A549 cells", "value": "not been visualized"}, {"measurement": "decrease of cell viability", "setting": "HeLa cells; 50 µM", "value": 45, "unit": "%"}, {"measurement": "decrease of cell viability", "setting": "HeLa cells; 125 µM (highest concentration)", "value": 93, "unit": "%"}]}
{"substance": "B74–94: chemically synthesized peptide corresponding to binase region 74–94 (DINYVSGFRNADRLVYSSDWL; UniProt P00649 127-147, looked up, fragment)", "values": [{"measurement": "detection inside BT-20 cells", "setting": "BT-20 cells [2]", "value": "detected inside BT-20 cells"}, {"measurement": "decrease of cytotoxicity after preliminary cell treatment with cetuximab", "setting": "BT-20 cells [3]", "value": 28, "unit": "%"}, {"measurement": "inhibition of cell proliferation (fold)", "setting": "MCF-7 cells", "value": "two-fold"}, {"measurement": "detection inside A549 cells", "setting": "A549 cells", "value": "not been visualized"}]}
{"substance": "B95–109: chemically synthesized peptide corresponding to binase region 95–109 (IYKTTDHYATFTRIR; UniProt P00649 148-162, looked up, fragment)", "values": [{"measurement": "decrease of cell viability", "setting": "BT-20 cells [1]; [5]", "value": "15–25%"}]}
{"substance": "binase-derived peptide B74–94", "values": [{"measurement": "cytotoxicity of B74–94 (50 μM, 48 h) toward BT-20 cells by MTT assay after 48 h of pre-treatment with 10 μg/mL cetuximab (EGFR-specific antibody)", "setting": "[4]", "value": 28, "unit": "%"}]}
